In ChEMBL document CHEMBL1201862, “PubChem BioAssay data set” (2004):
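Briefly, cells in 96-well plates were exposed to five compound concentrations for 48 h, and endpoints were estimated by linear interpolation. GI50 = concentration required for 50% inhibition of growth.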 Activity calls are given as the source filed them. Cut-off read from the data, not from the text of the source: active = GI50 up to about 1.1 µM and inactive = higher.

How the values were obtained:
Assay in all cases: NCI tumour cell line growth inhibition, 48 h
HOP-62 = test system: HOP-62
SW-620 = test system: SW-620
NCI-H460 = test system: NCI-H460
KM12 = test system: KM12
MOLT-4 = test system: MOLT-4
SNB-75 = test system: SNB-75
SNB-78 = test system: SNB-78
OVCAR-8 = test system: OVCAR-8
SF-268 = test system: SF-268
U-251 = test system: U-251
UACC-62 = test system: UACC-62
SF-539 = test system: SF-539
DLD-1 = test system: DLD-1
DMS-114 = test system: DMS-114
NCI-H226 = test system: NCI-H226
NCI/ADR-RES = test system: NCI/ADR-RES
T47D = test system: T47D
MDA-MB-231 = test system: MDA-MB-231
DU-145 = test system: DU-145

Row | Compound | GI50 (HOP-62) | GI50 (SW-620) | GI50 (NCI-H460) | GI50 (KM12) | GI50 (MOLT-4) | GI50 (SNB-75) | GI50 (SNB-78) | GI50 (OVCAR-8) | GI50 (SF-268) | GI50 (U-251) | GI50 (UACC-62) | GI50 (SF-539) | GI50 (DLD-1) | GI50 (DMS-114) | GI50 (NCI-H226) | GI50 (NCI/ADR-RES) | GI50 (T47D) | GI50 (MDA-MB-231) | GI50 (DU-145)
1 | CCCCCCCc1cc(OC(=O)c2c(C)cc(OC)cc2O)cc(O)c1C(=O)O | 18.5 µM (inactive) | 26.2 µM (inactive) | 19.3 µM (inactive) | 23.1 µM (inactive) | 27.7 µM (inactive) | 19 µM (inactive) | 29.2 µM (inactive) | 27.1 µM (inactive) | 20.2 µM (inactive) | 17.9 µM (inactive) | 21 µM (inactive) | 17.6 µM (inactive) | 19.8 µM (inactive) |  |  |  |  |  | 
2 | C1CC2=C(C1)C1=S(S2)SC2=C1CCC2 |  | > 100 µM (inactive) | > 100 µM (inactive) | > 100 µM (inactive) | > 100 µM (inactive) | > 100 µM (inactive) | > 100 µM (inactive) | > 100 µM (inactive) | > 100 µM (inactive) | > 100 µM (inactive) | > 100 µM (inactive) | > 100 µM (inactive) | > 100 µM (inactive) | > 100 µM (inactive) | > 100 µM (inactive) |  |  |  | 
3 | Cc1cc(NS(=O)(=O)c2ccc(NC(=O)c3ccc(Cl)c4c(Nc5ccc(S(=O)(=O)Nc6cc(C)on6)cc5)c5ccccc5nc34)cc2)no1 | 23.3 µM (inactive) | 28.1 µM (inactive) | 21 µM (inactive) | 19.7 µM (inactive) | 29 µM (inactive) | 6.46 µM (inactive) | 36.1 µM (inactive) | 46 µM (inactive) | 13.8 µM (inactive) | 16.2 µM (inactive) | 14.4 µM (inactive) | 14.9 µM (inactive) | > 10 µM (inactive) | 18.5 µM (inactive) |  |  |  |  | 
4 | C/C=C/C=N/N(c1nnc(-c2ccccc2)c(-c2ccccc2)n1)S(=O)(=O)c1ccc(C)cc1 |  | 4.05 µM (inactive) | 11.1 µM (inactive) | 9.06 µM (inactive) | 3.18 µM (inactive) | 3.61 µM (inactive) | 15.3 µM (inactive) | 5.53 µM (inactive) | 5.46 µM (inactive) | 4.04 µM (inactive) | 3.33 µM (inactive) | 11.5 µM (inactive) | 5.05 µM (inactive) | 13 µM (inactive) | 15.3 µM (inactive) |  |  |  | 
5 | O=C(/C=C/c1ccccc1O)c1cccnc1 | > 100 µM (inactive) | > 100 µM (inactive) | > 100 µM (inactive) | > 100 µM (inactive) | > 100 µM (inactive) | > 100 µM (inactive) | > 100 µM (inactive) | > 100 µM (inactive) | > 100 µM (inactive) | > 100 µM (inactive) | > 100 µM (inactive) | > 100 µM (inactive) | > 100 µM (inactive) |  | > 100 µM (inactive) |  |  |  | 
6 | O=S(=O)(O)c1ccc(-c2c3nc(c(-c4ccc(S(=O)(=O)O)cc4)c4ccc([nH]4)c(-c4ccc(S(=O)(=O)O)cc4)c4nc(c(-c5ccc(S(=O)(=O)O)cc5)c5ccc2[nH]5)C=C4)C=C3)cc1 | > 100 µM (inactive) | > 100 µM (inactive) | > 100 µM (inactive) | > 100 µM (inactive) | > 100 µM (inactive) | 17.3 µM (inactive) | 44.6 µM (inactive) | > 100 µM (inactive) | 92.5 µM (inactive) | > 100 µM (inactive) | > 100 µM (inactive) | > 100 µM (inactive) | > 100 µM (inactive) | 40.2 µM (inactive) |  |  |  |  | 
7 | O=C1O[C@H](C(Cl)(Cl)Cl)N2CCCC12 (some centres undefined) | > 100 µM (inactive) | > 100 µM (inactive) | > 100 µM (inactive) | > 100 µM (inactive) | > 100 µM (inactive) | > 100 µM (inactive) |  | > 100 µM (inactive) | > 100 µM (inactive) | > 100 µM (inactive) | > 100 µM (inactive) | > 100 µM (inactive) |  | > 100 µM (inactive) | > 100 µM (inactive) |  |  |  | 
8 | COC(=O)/C(C#N)=C1\NN=NN1CCCN1CCOCC1 |  | > 100 µM (inactive) | > 100 µM (inactive) | > 100 µM (inactive) | > 100 µM (inactive) | > 100 µM (inactive) | > 100 µM (inactive) | > 100 µM (inactive) |  | > 100 µM (inactive) | > 100 µM (inactive) | > 100 µM (inactive) | > 100 µM (inactive) | > 100 µM (inactive) | > 100 µM (inactive) |  |  |  | 
9 | Oc1nc(S)nc2c1CCCN2 | > 100 µM (inactive) | > 100 µM (inactive) |  | > 100 µM (inactive) | > 100 µM (inactive) | > 100 µM (inactive) | > 100 µM (inactive) | > 100 µM (inactive) | > 100 µM (inactive) | > 100 µM (inactive) | > 100 µM (inactive) |  | > 100 µM (inactive) | > 100 µM (inactive) |  |  |  |  | 
10 | C/C(=N/O)c1sc(-c2nc(C)c(/C(C)=N\O)s2)nc1C |  | > 100 µM (inactive) |  |  | > 100 µM (inactive) | 31.3 µM (inactive) | > 100 µM (inactive) | > 100 µM (inactive) | > 100 µM (inactive) | > 100 µM (inactive) | > 100 µM (inactive) | > 100 µM (inactive) | > 100 µM (inactive) | > 100 µM (inactive) | > 100 µM (inactive) |  |  |  | 
11 | CC(=O)Nc1ccc(C(=O)NN2C(=O)C(Cl)C2c2ccc(Cl)cc2)cc1 (centres undefined) | 22.2 µM (inactive) | > 100 µM (inactive) | > 90.4 µM (inactive) | > 100 µM (inactive) | > 100 µM (inactive) | 16.1 µM (inactive) |  | 37 µM (inactive) | 23.3 µM (inactive) | 23.9 µM (inactive) | > 100 µM (inactive) | 21.6 µM (inactive) | > 100 µM (inactive) |  | > 57.4 µM (inactive) | > 100 µM (inactive) | > 100 µM (inactive) | 22.1 µM (inactive) | > 100 µM (inactive)
12 | COc1nc(NC2OCC(OC(C)=O)C(OC(C)=O)C2OC(C)=O)c(/N=C\C=N\c2c(NC3OCC(OC(C)=O)C(OC(C)=O)C3OC(C)=O)nc(OC)n(C)c2=O)c(=O)n1C (centres undefined) | > 100 µM (inactive) | > 100 µM (inactive) | > 100 µM (inactive) | > 100 µM (inactive) |  | > 100 µM (inactive) | > 100 µM (inactive) | > 100 µM (inactive) | > 100 µM (inactive) | > 100 µM (inactive) | > 100 µM (inactive) | > 100 µM (inactive) | > 100 µM (inactive) |  |  |  |  |  | 
13 | COC(=O)C1C=NNC1C(=O)OC (centres undefined) | > 100 µM (inactive) | > 100 µM (inactive) | > 100 µM (inactive) | > 100 µM (inactive) | > 100 µM (inactive) | > 100 µM (inactive) | > 100 µM (inactive) | > 100 µM (inactive) | > 100 µM (inactive) | > 100 µM (inactive) | > 100 µM (inactive) | > 100 µM (inactive) |  | > 100 µM (inactive) | > 100 µM (inactive) |  |  |  | 
14 | Cn1c2c(c3ccccc31)CCN(CCCCN1CCN(c3cccc(Cl)c3)CC1)C2=O | 15.2 µM (inactive) | 12.6 µM (inactive) | 13.4 µM (inactive) |  | 7.62 µM (inactive) | 0.0975 µM (active) | 2.88 µM (inactive) | 17.8 µM (inactive) | 16.9 µM (inactive) | 11.6 µM (inactive) | 11.4 µM (inactive) | 12.8 µM (inactive) | 10.6 µM (inactive) | 1.67 µM (inactive) |  |  |  |  | 
